Assay results: ChEMBL document CHEMBL1132426, “Inhibitors of the C(2)-symmetric HIV-1 protease: nonsymmetric binding of a symmetric cyclic sulfamide with ketoxime groups in the P2/P2' side chains” (J Med Chem, 1999)

target: Human immunodeficiency virus type 1 protease (Human immunodeficiency virus 1, UniProt Q72874); experiment: Inhibitory activity against HIV-1 Protease expressed in Escherichia coli

In order of falling Ki:
1. COC(Cc1cccc(CN2[C@H](COc3ccccc3)[C@H](O)[C@@H](O)[C@@H](COc3ccccc3)N(Cc3cccc(CC(OC)OC)c3)S2(=O)=O)c1)OC  540 nM
2. COC(=O)c1ccc(CN2[C@H](COc3ccccc3)[C@H](O)[C@@H](O)[C@@H](COc3ccccc3)N(Cc3ccc(C(=O)OC)cc3)S2(=O)=O)cc1  84 nM
3. CC(=O)c1cccc(CN2[C@H](COc3ccccc3)[C@H](O)[C@@H](O)[C@@H](COc3ccccc3)N(Cc3cccc(C(C)=O)c3)S2(=O)=O)c1  59 nM
4. O=S1(=O)N(Cc2cccc(CCO)c2)[C@H](COc2ccccc2)[C@H](O)[C@@H](O)[C@@H](COc2ccccc2)N1Cc1cccc(CCO)c1  43 nM
5. C/C(=N/O)c1cccc(CN2[C@H](COc3ccccc3)[C@H](O)[C@@H](O)[C@@H](COc3ccccc3)N(Cc3cccc(/C(C)=N\O)c3)S2(=O)=O)c1  3.4 nM
6. O=S1(=O)N(Cc2ccc(CO)cc2)[C@H](COc2ccccc2)[C@H](O)[C@@H](O)[C@@H](COc2ccccc2)N1Cc1ccc(CO)cc1  3.1 nM
